These results are taken from US11242351B2, “Tricyclic inhibitors of the BCL6 BTB domain protein-protein interaction and uses thereof” (priority 2017, dated 2022).

pEC50, pIC50, pKd: −log10 of the molar value. Read-outs that look alike come from different tables or passages of the source.

Assay [1] deals with BCL6 reporter construct in SuDHL4-3×BCL6-TK-Luc cells. The assay can be described thus: Cell-based luciferase assay (BCL6 reporter). Conditions: 48 h, read-out: Luc IC50. The method, then: Cell-Based Luciferase Assay:
A BCL6 reporter construct containing three copies of the consensus BCL6 binding site, the TK promoter, and the firefly luciferase gene was stably expressed in SuDHL4 cells after lentivirus infection and selection with Blasticidin. SuDHL4-3×BCL6-TK-Luc cells were seeded into a Viewplate 384-well assay dish at 15,000 cells/well in […] (Alpha-MEM high glucose containing 10% FBS, 25 mM HEPES, […] GlutaMAX, 100 µg/mL Normocin, and […] Gentamycin, Invitrogen). A HP D300 digital dispenser was used to dose cells with DMSO or test compounds across a 10-point range of concentrations (high dose of 10 μM), and cultures were grown in a humidified 5% CO2 incubator at 37° C. After two days, plates were removed from the incubator and equilibrated to room temperature. An equal volume of neolite reporter gene assay reagent was added to each well, and samples were processed according to the manufacturer's instructions (Perkin Elmer). The luminescent signal was measured using an Envision plate reader equipped with a US-Luminescence detector.

In the next assay the test system is Karpas422 cells. The assay can be described thus: Tumor cell growth inhibition assay. Format: cell-based. Conditions: Homo sapiens, KARPAS-422, 144 h, read-out: GI Karpas EC50. The procedure:
Tumor Cell Growth Inhibition Assay:
Karpas422 cells were seeded into a 96-well plate at 2,000 cells/well in 150 μl medium (Alpha-MEM containing 10% FBS, […] Normocin, and […] Gentamycin, Invitrogen). A HP D300 digital dispenser was used to dose cells with DMSO or test compounds across a 10-point range of concentrations (high dose of 5 μM), and cultures were grown in a humidified 5% CO2 incubator at 37° C. After six days, plates were removed from incubator and equilibrated to room temperature. An equal volume of ATPlite assay reagent was added to each well, and samples were processed according to the manufacturer's instructions (Perkin Elmer). The luminescent signal was measured using an Envision plate reader equipped with a US-Luminescence detector.

The target of assay [2] is BCL6 BTB domain (biotin-thrombin-BCL6 amino acids 1-129) (Homo sapiens (Human), UniProt P41182). The assay can be described thus: Surface Plasmon Resonance (SPR) assay. Format: binding. The following applies: Biacore T200, single cycle kinetic analysis. The method, then:
Surface Plasmon Resonance (SPR) Assay
SPR studies were performed using a Biacore™ T200 instrument (GE Health Sciences Inc.). […] The Biacore flow rate was set at 100 μl/min. […] Curve fitting and KD calculations were performed with the Biacore T200 Evaluation software (GE Health Sciences Inc).
Background: Surface plasmon resonance follows binding to a sensor surface in real time, without labels.

The mark [3] stands for this setting: SuDHL4-3×BCL6-TK-Luc cells, two days.
Setting [4] is: Karpas422 cells, six days, ATPlite.

One may read the pIC50 as −log10 of the IC50, conventionally taken in molar units. What is called pEC50 is −log10 of the EC50, conventionally taken in molar units. Broadly, the pKd is the negative decadic logarithm of the Kd, by convention in mol/L. Low values mean a high Kd, high ones a low Kd. For the compound `C[C@H]1COCCN1c1cc(NC(=O)Cn2cc(-c3cc(Cl)c(O)c(C(N)=O)c3)c3c(=O)n4c(nc32)CCC4)c(Cl)cn1` [I-2, (S)-3-chloro-5-(1-(2-((5-chloro-2-(3-methyl-morpholino)pyridin-4-yl)amino)-2-oxoethyl)-4-oxo-4,6,7,8-tetra-hydro-1H-dipyrrolo [1,2-a:2′,3′-d]pyrimidin-3-yl)-2-hydroxy-benzamide], the pIC50 in assay [1] (setting [3]) is 7.02. Also, the pEC50 in the assay on Karpas422 cells (setting [4]) is 6.52. The compound also had a pKd in assay [2] of 8.35.
As to `C[C@H]1COCCN1c1cc(NC(=O)Cn2cc(-c3cc(C(N)=O)c(O)c(F)c3F)c3c(=O)n4c(nc32)CCC4)c(Cl)cn1` [I-3, (S)-5-(1-(2-((5-chloro-2-(3-methylmorpho-lino)pyridin-4-yl)amino)-2-oxoethyl)-4-oxo-4,6,7,8-tetrahydro-1H-dipyrrolo[1,2-a:2′,3′-d]pyrimidin-3-yl)-3,4-difluoro-2-hydroxy-benzamide], the pIC50 in assay [1] (setting [3]) was 6.15. Besides, the pEC50 with Karpas422 cells (setting [4]) was 6.30. The pKd in assay [2] is 7.60.
The matching figures for `C[C@H]1CN(C)CCN1c1cc(NC(=O)Cn2cc(-c3cc(C(N)=O)c(O)c(F)c3F)c3c(=O)n4c(nc32)CCC4)c(Cl)cn1` [I-4, (S)-5-(1-(2-((5-chloro-2-(2,4-dimethylpiperazin-1-yl)pyridin-4-yl)amino)-2-oxoethyl)-4-oxo-4,6,7,8-tetrahydro-1H-dipyrrolo [1,2-a:2′,3′-d]pyrimidin-3-yl)-3,4-difluoro-2-hydroxybenzamide]: 6.50, 6.51 and 7.63.
Turning to `C[C@H]1COCCN1c1cc(NC(=O)Cn2cc(-c3cc(C(N)=O)c(O)c(F)c3F)c3c(=O)n4c(nc32)CCC4)c(Cl)c(F)n1` [I-5, (S)-5-(1-(2-((3-chloro-2-fluoro-6-(3-methyl-morpholino)pyridin-4-yl)amino)-2-oxoethyl)-4-oxo-4,6,7,8-tetrahydro-1H-dipyrrolo[1,2-a:2′,3′-d]pyrimidin-3-yl)-3,4-difluoro-2-hydroxy-benzamide], the pIC50 in assay [1] was 6.78. In addition, the pEC50 with Karpas422 cells is 6.91. In addition, in assay [2], the pKd is 7.93.
With `C[C@H]1CN(CC2CC2)CCN1c1cc(NC(=O)Cn2cc(-c3cc(C(N)=O)c(O)c(F)c3F)c3c(=O)n4c(nc32)CCC4)c(Cl)cn1` [I-6, (S)-5-(1-(2-((5-chloro-2-(4-(cyclopropylmethyl)-2-methylpiperazin-1-yl)pyridin-4-yl)amino)-2-oxoethyl)-4-oxo-4,6,7,8-tetrahydro-1H-dipyrrolo[1,2-a:2′,3′-d]pyrimidin-3-yl)-3,4-difluoro-2-hydroxy-benzamide], the pIC50 in assay [1] (setting [3]) was 6.51. Further, the pEC50 in the assay with Karpas422 cells (setting [4]) is 6.00. This compound also had a pKd in assay [2] of 7.59.
Take `C[C@H]1CN(C2COC2)CCN1c1cc(NC(=O)Cn2cc(-c3cc(C(N)=O)c(O)c(F)c3F)c3c(=O)n4c(nc32)CCC4)c(Cl)cn1` [I-7, (S)-5-(1-(2-((5-chloro-2-(2-methyl-4-(oxetan-3-yl)piperazin-1-yl)pyridin-4-yl)amino)-2-oxoethyl)-4-oxo-4,6,7,8-tetrahydro-1H-dipyrrolo[1,2-a:2′,3′-d]pyrimidin-3-yl)-3,4-difluoro-2-hydroxy-benzamide]: the pIC50 in assay [1] (setting [3]) was 6.67. For the same compound, the pEC50 in the assay on Karpas422 cells (setting [4]) was 6.52. The same compound gave a pKd in assay [2] of 7.75.
The matching figures for `C[C@H]1CN(CC2(C)CC2)CCN1c1cc(NC(=O)Cn2cc(-c3cc(C(N)=O)c(O)c(F)c3F)c3c(=O)n4c(nc32)CCC4)c(Cl)cn1` [I-9, (S)-5-(1-(2-((5-chloro-2-(2-methyl-4-((1-methyl-cyclopropyl)methyl)piperazin-1-yl)pyridin-4-yl)amino)-2-oxoethyl)-4-oxo-4,6,7,8-tetrahydro-1H-dipyrrolo[1,2-a:2′,3′-d]pyrimidin-3-yl)-3,4-difluoro-2-hydroxy-benzamide]: 6.13, 6.16 and 7.25.
As for `C[C@H]1CN(C)CCN1c1cc(NC(=O)Cn2cc(-c3cc(C(N)=O)c(O)c(Cl)c3F)c3c(=O)n4c(nc32)CCC4)c(Cl)c(F)n1` [I-10, (S)-3-chloro-5-(1-(2-((3-chloro-6-(2,4-dimethylpiperazin-1-yl)-2-fluoropyridin-4-yl)amino)-2-oxoethyl)-4-oxo-4,6,7,8-tetrahydro-1H-dipyrrolo[1,2-a:2′,3′-d]pyrimidin-3-yl)-4-fluoro-2-hydroxy-benzamide], the pIC50 in assay [1] is 6.35. Moreover, the pEC50 with Karpas422 cells was 6.38. Besides, in assay [2], the pKd is 7.30.
As for `C[C@H]1COCCN1c1cc(NC(=O)Cn2cc(-c3cc(C(N)=O)c(O)c(Cl)c3F)c3c(=O)n4c(nc32)CCC4)c(Cl)c(F)n1` [I-11, (S)-3-chloro-5-(1-(2-((3-chloro-2-fluoro-6-(3-methylmorpholino)pyridin-4-yl)amino)-2-oxoethyl)-4-oxo-4,6,7,8-tetrahydro-1H-dipyrrolo [1,2-a:2′,3′-d]pyrimidin-3-yl)-4-fluoro-2-hydroxybenzamide], the pIC50 in assay [1] (setting [3]) is 6.01. For the same compound, in the assay on Karpas422 cells (setting [4]), the pEC50 is 5.72. The compound also had a negative logarithm of the Kd (pKd) in assay [2] of 6.95.
As to `C[C@H]1CN(C)CCN1c1cc(NC(=O)Cn2cc(-c3cc(C(N)=O)c(O)c(Cl)c3F)c3c(=O)n4c(nc32)CCC4)c(Cl)cn1` [I-12, (S)-3-chloro-5-(1-(2-((5-chloro-2-(2,4-dimethyl-piperazin-1-yl)pyridin-4-yl)amino)-2-oxoethyl)-4-oxo-4,6,7,8-tetrahydro-1H-dipyrrolo[1,2-a:2′,3′-d]pyrimidin-3-yl)-4-fluoro-2-hydroxy-benzamide], in assay [1], the pIC50 is 6.00. The pEC50 in the assay with Karpas422 cells was 5.83. In assay [2], this compound had a pKd of 6.95.
As for `C[C@H]1COCCN1c1cc(NC(=O)Cn2cc(-c3cc(C(N)=O)c(O)c(Cl)c3F)c3c(=O)n4c(nc32)CCC4)c(Cl)cn1` [I-13, (S)-3-chloro-5-(1-(2-((5-chloro-2-(3-methyl-morpholino)pyridin-4-yl)amino)-2-oxoethyl)-4-oxo-4,6,7,8-tetra-hydro-1H-dipyrrolo [1,2-a:2′,3′-d]pyrimidin-3-yl)-4-fluoro-2-hydroxybenzamide], the pIC50 in assay [1] (setting [3]) was 5.88. For the same compound, the pEC50 in the assay with Karpas422 cells (setting [4]) was 5.73. For the same compound, in assay [2], the pKd is 6.95.
The matching figures for `C[C@H]1CN(C2COC2)CCN1c1cc(NC(=O)Cn2cc(-c3cc(C(N)=O)c(O)c(Cl)c3F)c3c(=O)n4c(nc32)CCC4)c(Cl)cn1` [I-14, (S)-3-chloro-5-(1-(2-((5-chloro-2-(2-methyl-4-(oxetan-3-yl)piperazin-1-yl)pyridin-4-yl)amino)-2-oxoethyl)-4-oxo-4,6,7,8-tetrahydro-1H-dipyrrolo[1,2-a:2′,3′-d]pyrimidin-3-yl)-4-fluoro-2-hydroxy-benzamide]: 6.11, 6.16 and 7.24.
In the case of `COc1c(O)c(C(N)=O)cc(-c2cn(CC(=O)Nc3cc(N4CCN(C)C[C@@H]4C)nc(F)c3Cl)c3nc4n(c(=O)c23)CCC4)c1F` [I-15, (S)-5-(1-(2-((3-chloro-6-(2,4-dimethylpiperazin-1-yl)-2-fluoropyridin-4-yl)amino)-2-oxoethyl)-4-oxo-4,6,7,8-tetrahydro-1H-dipyrrolo[1,2-a:2′,3′-d]pyrimidin-3-yl)-4-fluoro-2-hydroxy-3-methoxybenzamide], the pIC50 in assay [1] is 6.43. The compound also showed a pKd in assay [2] of 7.47.
Take `COc1c(O)c(C(N)=O)cc(-c2cn(CC(=O)Nc3cc(N4CCOC[C@@H]4C)nc(F)c3Cl)c3nc4n(c(=O)c23)CCC4)c1F` [I-16, (S)-5-(1-(2-((3-chloro-2-fluoro-6-(3-methyl-morpholino)pyridin-4-yl)amino)-2oxoethyl)-4-oxo-4,6,7,8-tetra-hydro-1H-dipyrrolo [1,2-a:2′,3′-d]pyri-midin-3-yl)-4-fluoro-2-hydroxy-3-methoxy-benzamide]: the pIC50 in assay [1] is 6.29.
As to `COc1c(O)c(C(N)=O)cc(-c2cn(CC(=O)Nc3cc(N4CCN(C)C[C@@H]4C)ncc3Cl)c3nc4n(c(=O)c23)CCC4)c1F` [I-17, (S)-5-(1-(2-((5-chloro-2-(2,4-dimethyl-piperazin-1-yl)pyridin-4-yl)amino)-2-oxoethyl)-4-oxo-4,6,7,8-tetrahydro-1H-dipyrrolo[1,2-a:2′,3′-d]pyrimidin-3-yl)-4-fluoro-2-hydroxy-3-methoxybenzamide], the pIC50 in assay [1] (setting [3]) is 6.07. Besides, the pEC50 in the assay with Karpas422 cells (setting [4]) is 6.01. Further, the pKd in assay [2] was 7.30.
